The values that follow come from patent US20230295118A1 (EnhancedBio Inc., priority 2022, published 2023).

Molecules are shown by their SMILES.

Holding throughout (format): cell-based
The subject of experiment [1] is mantle cell lymphoma cell (Mino or JeKo-1). The experiment is described as follows: Antiproliferative effect, MTS cell viability assay. As to conditions: 72 h; for IC50: mantle cell lymphoma cell (Mino or JeKo-1), MTS assay, read-out: IC50 (anti-proliferation). The method in brief:
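Mino cells treated with compounds at 0, 0.0001, 0.001, 0.01, 0.1, 1 μM for 72 h; palbociclib and abemaciclib as positive controls. Viability by MTS, formazan absorbance read at 490 nm.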
Background: Tetrazolium dyes change colour on reduction, which living cells bring about.

Another experiment has as its target T1, CDK6 (Homo sapiens, UniProt Q00534).
T1 construct: endogenous in cells
The experiment is described as follows: CDK6 degradation (DC50, Dmax).

For another experiment, the target named is T2, CDK4 (Homo sapiens, UniProt P11802).
T2 construct: endogenous in cells
T2 sequence (P11802 whole entry): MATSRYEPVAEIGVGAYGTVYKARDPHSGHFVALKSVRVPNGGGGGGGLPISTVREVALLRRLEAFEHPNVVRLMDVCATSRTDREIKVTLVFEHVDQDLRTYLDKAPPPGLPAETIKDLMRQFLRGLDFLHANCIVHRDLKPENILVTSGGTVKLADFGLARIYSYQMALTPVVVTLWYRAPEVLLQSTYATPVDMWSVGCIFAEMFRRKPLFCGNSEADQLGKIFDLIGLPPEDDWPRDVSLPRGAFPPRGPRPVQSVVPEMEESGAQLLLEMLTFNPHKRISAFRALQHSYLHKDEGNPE
The experiment is described as follows: CDK4 degradation (DC50, Dmax).

T1 sequence (Q00534 whole entry): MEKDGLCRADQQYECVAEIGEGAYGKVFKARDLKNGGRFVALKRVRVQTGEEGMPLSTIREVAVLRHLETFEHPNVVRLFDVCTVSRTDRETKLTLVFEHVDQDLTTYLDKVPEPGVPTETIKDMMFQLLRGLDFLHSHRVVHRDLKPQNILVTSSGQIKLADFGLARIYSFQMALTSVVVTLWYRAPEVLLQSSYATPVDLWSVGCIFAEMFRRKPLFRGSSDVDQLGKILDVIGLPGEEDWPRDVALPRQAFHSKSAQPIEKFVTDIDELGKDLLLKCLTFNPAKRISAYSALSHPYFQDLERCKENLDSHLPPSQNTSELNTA

Turning to `CC(=O)c1c(C)c2cnc(Nc3ccc(N4CCN(C(=O)N5CCC(CCN6CCN(c7ccc8c(c7)C(=O)N(C7CCC(=O)NC7=O)C8=O)CC6)CC5)CC4)cn3)nc2n(C2CCCC2)c1=O` (centres unmarked) [Compound 19, 5-(4-(2-(1-(4-(6-((6-acetyl-8-cyclopentyl-5-methyl-7-oxo-7,8-dihydropyrido[2,3-d]pyrimidin-2-yl)amino)pyridin-3-yl)piperazine-1-carbonyl)piperidin-4-yl)ethyl)piperazin-1-yl)-2-(2,6-dioxopiperidin-3-yl)isoindoline-1,3-dione], the IC50 in experiment [1] is less than 50 nM. Further, the DC50 on CDK6 and at CDK4 was 50 to 200 nM in each case. In addition, the Dmax on CDK6 and on CDK4 was greater than 60% throughout.

On to `Cc1nc2c(F)cc(-c3nc(Nc4ccc(CC5CCN(C(=O)C6CCN(c7ccc(NC8CCC(=O)NC8=O)cc7)CC6)CC5)cn4)ncc3F)cc2n1C(C)C` (centres unmarked) [Compound 164, 3-((4-(4-(4-((6-((5-fluoro-4-(4-fluoro-1-isopropyl-2-methyl-1H-benzo[d]imidazol-6-yl)pyrimidin-2-yl)amino)pyridin-3-yl)methyl)piperidine-1-carbonyl)piperidin-1-yl)phenyl)amino) piperidine-2,6-dione], for which the IC50 in experiment [1] lay in the range of 50 to 200 nM. On CDK6, the DC50 lay in the range of 50 to 200 nM and the Dmax is greater than 80%. Besides, on CDK4, the DC50 is 50 to 200 nM and the Dmax is greater than 60%.

Turning to `CC(=O)c1c(C)c2cnc(Nc3ccc(N4CCN(C(=O)N5CCN(CCC6CCN(c7ccc8c(c7)CN(C7CCC(=O)NC7=O)C8=O)CC6)CC5)CC4)cn3)nc2n(C2CCCC2)c1=O` (centres unmarked) [Compound 24, 3-(5-(4-(2-(4-(4-(6-((6-acetyl-8-cyclopentyl-5-methyl-7-oxo-7,8-dihydropyrido[2,3-d]pyrimidin-2-yl)amino)pyridin-3-yl)piperazine-1-carbonyl)piperazin-1-yl)ethyl)piperidin-1-yl)-1-oxoisoindolin-2-yl)piperidine-2,6-dione], in experiment [1], the IC50 is greater than 200 nM. Further, on CDK6, the DC50 is greater than 200 nM and the Dmax was greater than 50%. Further, on CDK4, the DC50 is greater than 200 nM and the Dmax is greater than 50%.

On to `CC(=O)c1c(C)c2cnc(Nc3ccc(N4CCN(CCN5CCN(c6ccc7c(c6)C(=O)N(C6CCC(=O)NC6=O)C7=O)CC5)CC4)cn3)nc2n(C2CCCC2)c1=O` (centres unmarked) [Compound 67, 5-(4-(2-(4-(6-((6-acetyl-8-cyclopentyl-5-methyl-7-oxo-7,8-dihydropyrido[2,3-d]pyrimidin-2-yl)amino)pyridin-3-yl)piperazin-1-yl)ethyl)piperazin-1-yl)-2-(2,6-dioxopiperidin-3-yl) isoindoline-1,3-dione], for which, in experiment [1], the IC50 is less than 50 nM. Besides, the DC50 at CDK6 was 50 to 200 nM; at CDK4 it was less than 50 nM. The Dmax at CDK6 and on CDK4 was greater than 80% throughout.

As to `CC(=O)c1c(C)c2cnc(Nc3ccc(N4CCN(CC5CCN(C(=O)N6CCC(c7ccc8c(c7)C(=O)N(C7CCC(=O)NC7=O)C8=O)CC6)CC5)CC4)cn3)nc2n(C2CCCC2)c1=O` (centres unmarked) [Compound 33, 5-(1-(4-((4-(6-((6-acetyl-8-cyclopentyl-5-methyl-7-oxo-7,8-dihydropyrido[2,3-d]pyrimidin-2-yl)amino)pyridin-3-yl)piperazin-1-yl)methyl)piperidine-1-carbonyl)piperidin-4-yl)-2-(2,6-dioxopiperidin-3-yl)isoindoline-1,3-dione], the IC50 in experiment [1] lay in the range of 50 to 200 nM. The DC50 on CDK6 and on CDK4 was greater than 200 nM each time. In addition, the results for the Dmax on CDK6 and on CDK4 were greater than 50% and greater than 60%, respectively.

Take `CC(=O)c1c(C)c2cnc(Nc3ccc(N4CCN(CC5CCN(C(=O)N6CCC(C7CCN(c8ccc9c(c8)C(=O)N(C8CCC(=O)NC8=O)C9=O)CC7)CC6)CC5)CC4)cn3)nc2n(C2CCCC2)c1=O` (centres unmarked) [Compound 82, 5-(1′-(4-((4-(6-((6-acetyl-8-cyclopentyl-5-methyl-7-oxo-7,8-dihydropyrido[2,3-d]pyrimidin-2-yl)amino)pyridin-3-yl)piperazin-1-yl)methyl)piperidine-1-carbonyl)-[4,4′-bipiperidin]-1-yl)-2-(2,6-dioxopiperidin-3-yl) isoindoline-1,3-dione]: the IC50 in experiment [1] is greater than 200 nM. On CDK6, this molecule came in with a DC50 greater than 200 nM and a Dmax greater than 50%. Also, on CDK4, the half-maximal degradation concentration (DC50) is greater than 200 nM and the Dmax was greater than 50%.

Take `CC(=O)c1c(C)c2cnc(Nc3ccc(N4CCN(C(=O)C5CCN(c6ccc(NC7CCC(=O)NC7=O)cc6)CC5)CC4)cn3)nc2n(C2CCCC2)c1=O` (centres unmarked) [Compound 117, 3-((4-(4-(4-(6-((6-acetyl-8-cyclopentyl-5-methyl-7-oxo-7,8-dihydropyrido[2,3-d]pyrimidin-2-yl)amino)pyridin-3-yl)piperazine-1-carbonyl)piperidin-1-yl)phenyl)amino) piperidine-2,6-dione]: the IC50 in experiment [1] was less than 50 nM. Besides, on CDK6, the DC50 fell in the range of 50 to 200 nM and the Dmax was greater than 60%. Also, on CDK4, the DC50 is less than 50 nM and the Dmax was greater than 80%.

Consider `Cc1nc2c(F)cc(-c3nc(Nc4ccc(CC5CCN(CC6CN(c7ccc(NC8CCC(=O)NC8=O)cc7)C6)CC5)cn4)ncc3F)cc2n1C(C)C` (centres unmarked) [Compound 142, 3-((4-(3-((4-((6-((5-fluoro-4-(4-fluoro-1-isopropyl-2-methyl-1H-benzo[d]imidazol-6-yl)pyrimidin-2-yl)amino)pyridin-3-yl)methyl)piperidin-1-yl)methyl)azetidin-1-yl)phenyl)amino) piperidine-2,6-dione], for which the IC50 in experiment [1] is less than 50 nM. Also, the DC50 on CDK6 and on CDK4 was 50 to 200 nM in each case. Moreover, the Dmax on CDK6 and on CDK4 was greater than 80% each time.

For the molecule `CN(C)C(=O)c1cc2cnc(Nc3ccc(N4CCN(CCCNc5ccc6c(c5)CN(C5CCC(=O)NC5=O)C6=O)CC4)cn3)nc2n1C1CCCC1` (centres unmarked) [Compound 76, 7-cyclopentyl-2-((5-(4-(3-((2-(2,6-dioxopiperidin-3-yl)-1-oxoisoindolin-5-yl)amino)propyl)piperazin-1-yl)pyridin-2-yl)amino)-N,N-dimethyl-7H-pyrrolo[2,3-d]pyrimidine-6-carboxamide], in experiment [1], the IC50 is less than 50 nM. Further, the “inhibition of cell proliferation of Mino cells” value in experiment [1] (Mino cells, 0-1 μM, result in words) is listed as “dose-dependent inhibition of cell proliferation”. At CDK6, this molecule returned a DC50 of less than 50 nM and a Dmax greater than 80%. Also, at CDK4, the DC50 is less than 50 nM and the Dmax is greater than 80%.

`CC(=O)c1c(C)c2cnc(Nc3ccc(N4CCN(CCC5CCN(C(=O)Nc6ccc7c(c6)C(=O)N(C6CCC(=O)NC6=O)C7=O)CC5)CC4)cn3)nc2n(C2CCCC2)c1=O` (centres unmarked) [Compound 45, 4-(2-(4-(6-((6-acetyl-8-cyclopentyl-5-methyl-7-oxo-7,8-dihydropyrido[2,3-d]pyrimidin-2-yl)amino)pyridin-3-yl)piperazin-1-yl)ethyl)-N-(2-(2,6-dioxopiperidin-3-yl)-1,3-dioxoisoindolin-5-yl)piperidine-1-carboxamide]: in experiment [1], the IC50 fell in the range of 50 to 200 nM. At CDK6, this molecule showed a 50% degradation concentration (DC50) of 50 to 200 nM and a Dmax greater than 60%. On CDK4, this molecule had a DC50 of 50 to 200 nM and a Dmax greater than 60%.

Take `CC(=O)c1c(C)c2cnc(Nc3ccc(N4CCN(C(=O)N5CCN(CC6CCN(c7ccc8c(c7)C(=O)N(C7CCC(=O)NC7=O)C8=O)CC6)CC5)CC4)cn3)nc2n(C2CCCC2)c1=O` (centres unmarked) [Compound 15, 5-(4-((4-(4-(6-((6-acetyl-8-cyclopentyl-5-methyl-7-oxo-7,8-dihydropyrido[2,3-d]pyrimidin-2-yl)amino)pyridin-3-yl)piperazine-1-carbonyl)piperazin-1-yl)methyl)piperidin-1-yl)-2-(2,6-dioxopiperidin-3-yl) isoindoline-1,3-dione]: in experiment [1], the IC50 is greater than 200 nM. In addition, the DC50 on CDK6 and at CDK4 was greater than 200 nM each time. The Dmax on CDK6 and at CDK4 was greater than 50% in each case.

Take `CC(=O)c1c(C)c2cnc(Nc3ccc(N4CCN(C(=O)C5CN(c6ccc(NC7CCC(=O)NC7=O)cc6)C5)CC4)cn3)nc2n(C2CCCC2)c1=O` (centres unmarked) [Compound 124, 3-((4-(3-(4-(6-((6-acetyl-8-cyclopentyl-5-methyl-7-oxo-7,8-dihydropyrido[2,3-d]pyrimidin-2-yl)amino)pyridin-3-yl)piperazine-1-carbonyl)azetidin-1-yl)phenyl)amino) piperidine-2,6-dione]: in experiment [1], the IC50 is less than 50 nM. At CDK6, this molecule returned a DC50 of 50 to 200 nM and a Dmax greater than 60%. Besides, at CDK4, the DC50 lay within 50 to 200 nM and the Dmax is greater than 80%.

Turning to `Cc1nc2c(F)cc(-c3nc(Nc4ccc(CN5CCN(C(=O)C6CN(c7ccc8c(c7)CN(C7CCC(=O)NC7=O)C8=O)C6)CC5)cn4)ncc3F)cc2n1C(C)C` (centres unmarked) [Compound 136, 3-(5-(3-(4-((6-((5-fluoro-4-(4-fluoro-1-isopropyl-2-methyl-1H-benzo[d]imidazol-6-yl)pyrimidin-2-yl)amino)pyridin-3-yl)methyl)piperazine-1-carbonyl)azetidin-1-yl)-1-oxoisoindolin-2-yl) piperidine-2,6-dione], in experiment [1], the IC50 was less than 50 nM. On CDK6, this molecule came in with a DC50 of 50 to 200 nM and a Dmax greater than 80%. On CDK4, this molecule showed a DC50 of 50 to 200 nM and a Dmax greater than 80%.

For `CC(=O)c1c(C)c2cnc(Nc3ccc(N4CCN(C(=O)N5CCC(N6CCC(c7ccc8c(c7)C(=O)N(C7CCC(=O)NC7=O)C8=O)CC6)CC5)CC4)cn3)nc2n(C2CCCC2)c1=O` (centres unmarked) [Compound 7, 5-(1′-(4-(6-((6-acetyl-8-cyclopentyl-5-methyl-7-oxo-7,8-dihydropyrido[2,3-d]pyrimidin-2-yl)amino)pyridin-3-yl)piperazine-1-carbonyl)-[1,4′-bipiperidin]-4-yl)-2-(2,6-dioxopiperidin-3-yl)isoindoline-1,3-dione], the IC50 in experiment [1] is 50 to 200 nM. In addition, at CDK6, the DC50 lay in the range of 50 to 200 nM and the Dmax was greater than 60%. At CDK4, the DC50 lay within 50 to 200 nM and the greatest degradation seen (Dmax) is greater than 60%.

One may read the DC50 as the concentration giving 50% degradation. High values mean degradation only at high concentration, low ones degradation at low concentration. As a reminder, the Dmax is the greatest extent of degradation seen. A lower Dmax goes with a partial loss of target.
